Measurements reported in the NIST ThermoML archive (doi:10.1016/j.fluid.2016.02.009).

Conditions: Liquid, Vibrating tube method

CCCCCOCCCCC [dipentyl ether]
Conditions	mass density [kg/m3]
283.15 K, 100 kPa	790.99
283.15 K, 5000 kPa	794.85
283.15 K, 10000 kPa	798.47
283.15 K, 15000 kPa	801.9
283.15 K, 20000 kPa	805.2
283.15 K, 25000 kPa	808.38
283.15 K, 30000 kPa	811.47
283.15 K, 35000 kPa	814.44
283.15 K, 40000 kPa	817.31
283.15 K, 45000 kPa	820.12
283.15 K, 50000 kPa	822.84
283.15 K, 55000 kPa	825.48
283.15 K, 60000 kPa	828.06
283.15 K, 65000 kPa	830.58
288.15 K, 100 kPa	786.98
288.15 K, 5000 kPa	790.95
288.15 K, 10000 kPa	794.65
288.15 K, 15000 kPa	798.17
288.15 K, 20000 kPa	801.55
288.15 K, 25000 kPa	804.81
288.15 K, 30000 kPa	807.94
288.15 K, 35000 kPa	810.97
288.15 K, 40000 kPa	813.93
288.15 K, 45000 kPa	816.78
288.15 K, 50000 kPa	819.54
288.15 K, 55000 kPa	822.24
288.15 K, 60000 kPa	824.87
288.15 K, 65000 kPa	827.41
293.15 K, 100 kPa	782.96
293.15 K, 5000 kPa	787.04
293.15 K, 10000 kPa	790.83
293.15 K, 15000 kPa	794.44
293.15 K, 20000 kPa	797.91
293.15 K, 25000 kPa	801.23
293.15 K, 30000 kPa	804.44
293.15 K, 35000 kPa	807.54
293.15 K, 40000 kPa	810.53
293.15 K, 45000 kPa	813.44
293.15 K, 50000 kPa	816.26
293.15 K, 55000 kPa	819.01
293.15 K, 60000 kPa	821.67
293.15 K, 65000 kPa	824.26
298.15 K, 100 kPa	778.94
298.15 K, 5000 kPa	783.12
298.15 K, 10000 kPa	787.02
298.15 K, 15000 kPa	790.73
298.15 K, 20000 kPa	794.27
298.15 K, 25000 kPa	797.69
298.15 K, 30000 kPa	800.97
298.15 K, 35000 kPa	804.13
298.15 K, 40000 kPa	807.2
298.15 K, 45000 kPa	810.16
298.15 K, 50000 kPa	813.04
298.15 K, 55000 kPa	815.82
298.15 K, 60000 kPa	818.54
298.15 K, 65000 kPa	821.19
303.15 K, 100 kPa	774.9
303.15 K, 5000 kPa	779.22
303.15 K, 10000 kPa	783.2
303.15 K, 15000 kPa	787
303.15 K, 20000 kPa	790.65
303.15 K, 25000 kPa	794.13
303.15 K, 30000 kPa	797.48
303.15 K, 35000 kPa	800.72
303.15 K, 40000 kPa	803.84
303.15 K, 45000 kPa	806.86
303.15 K, 50000 kPa	809.78
303.15 K, 55000 kPa	812.62
303.15 K, 60000 kPa	815.39
303.15 K, 65000 kPa	818.05
308.15 K, 100 kPa	770.87
308.15 K, 5000 kPa	775.29
308.15 K, 10000 kPa	779.38
308.15 K, 15000 kPa	783.28
308.15 K, 20000 kPa	787
308.15 K, 25000 kPa	790.57
308.15 K, 30000 kPa	793.99
308.15 K, 35000 kPa	797.3
308.15 K, 40000 kPa	800.48
308.15 K, 45000 kPa	803.56
308.15 K, 50000 kPa	806.55
308.15 K, 55000 kPa	809.43
308.15 K, 60000 kPa	812.24
308.15 K, 65000 kPa	814.95
313.15 K, 100 kPa	766.82
313.15 K, 5000 kPa	771.35
313.15 K, 10000 kPa	775.57
313.15 K, 15000 kPa	779.56
313.15 K, 20000 kPa	783.37
313.15 K, 25000 kPa	787.03
313.15 K, 30000 kPa	790.53
313.15 K, 35000 kPa	793.9
313.15 K, 40000 kPa	797.15
313.15 K, 45000 kPa	800.28
313.15 K, 50000 kPa	803.33
313.15 K, 55000 kPa	806.26
313.15 K, 60000 kPa	809.11
313.15 K, 65000 kPa	811.88
318.15 K, 100 kPa	762.76
318.15 K, 5000 kPa	767.42
318.15 K, 10000 kPa	771.74
318.15 K, 15000 kPa	775.84
318.15 K, 20000 kPa	779.77
318.15 K, 25000 kPa	783.5
318.15 K, 30000 kPa	787.08
318.15 K, 35000 kPa	790.52
318.15 K, 40000 kPa	793.82
318.15 K, 45000 kPa	797.02
318.15 K, 50000 kPa	800.1
318.15 K, 55000 kPa	803.09
318.15 K, 60000 kPa	806
318.15 K, 65000 kPa	808.83
323.15 K, 100 kPa	758.69
323.15 K, 5000 kPa	763.48
323.15 K, 10000 kPa	767.94
323.15 K, 15000 kPa	772.13
323.15 K, 20000 kPa	776.12
323.15 K, 25000 kPa	779.95
323.15 K, 30000 kPa	783.62
323.15 K, 35000 kPa	787.13
323.15 K, 40000 kPa	790.51
323.15 K, 45000 kPa	793.75
323.15 K, 50000 kPa	796.9
323.15 K, 55000 kPa	799.95
323.15 K, 60000 kPa	802.89
323.15 K, 65000 kPa	805.77
328.15 K, 100 kPa	754.6
328.15 K, 5000 kPa	759.51
328.15 K, 10000 kPa	764.08
328.15 K, 15000 kPa	768.39
328.15 K, 20000 kPa	772.51
328.15 K, 25000 kPa	776.42
328.15 K, 30000 kPa	780.18
328.15 K, 35000 kPa	783.75
328.15 K, 40000 kPa	787.17
328.15 K, 45000 kPa	790.5
328.15 K, 50000 kPa	793.7
328.15 K, 55000 kPa	796.82
328.15 K, 60000 kPa	799.82
328.15 K, 65000 kPa	802.72
333.15 K, 100 kPa	750.51
333.15 K, 5000 kPa	755.54
333.15 K, 10000 kPa	760.26
333.15 K, 15000 kPa	764.69
333.15 K, 20000 kPa	768.87
333.15 K, 25000 kPa	772.87
333.15 K, 30000 kPa	776.68
333.15 K, 35000 kPa	780.35
333.15 K, 40000 kPa	783.87
333.15 K, 45000 kPa	787.29
333.15 K, 50000 kPa	790.54
333.15 K, 55000 kPa	793.66
333.15 K, 60000 kPa	796.72
333.15 K, 65000 kPa	799.67
